The values below are quoted from earlier work in patent publication US11266683B2, “Antimicrobial and cleansing composition consisting of a polymeric biguanide and EDTA” (priority 2016, dated 2022).

Read-outs that look alike come from different tables or passages of the source.

The test system of data set [1] is fibroblasts.
Data set [2] deals with S. aureus.

Regarding `[H]/N=C(\N/C(=N/[H])NCCCCCCNC(=N)NC(=N)Nc1ccc(Cl)cc1)Nc1ccc(Cl)cc1` [chlorhexidine], the effect on fibroblasts result in data set [1] (at higher concentration) is listed as “causes necrosis”; in data set [1] (at lower concentration) it was “induces apoptosis”.
Turning to polyhexamethylene biguanide [PHMB], the “risk of the bacterium developing resistance” value in data set [2] is reported as “very low”.
